Experimental data from BindingDB's records for doi:10.1038/sj.bjp.0703341 (Friedrich-Schiller-University Jena, 2000).
“And” between values parts separate entries of the source, which are not always exact repeats. Equal entries are not always repeated.

Experiments:
[1] = biological target: T1, 5-hydroxytryptamine receptor 2C (Sus scrofa, UniProt G7ZKZ7)
T1 sequence (G7ZKZ7 whole entry): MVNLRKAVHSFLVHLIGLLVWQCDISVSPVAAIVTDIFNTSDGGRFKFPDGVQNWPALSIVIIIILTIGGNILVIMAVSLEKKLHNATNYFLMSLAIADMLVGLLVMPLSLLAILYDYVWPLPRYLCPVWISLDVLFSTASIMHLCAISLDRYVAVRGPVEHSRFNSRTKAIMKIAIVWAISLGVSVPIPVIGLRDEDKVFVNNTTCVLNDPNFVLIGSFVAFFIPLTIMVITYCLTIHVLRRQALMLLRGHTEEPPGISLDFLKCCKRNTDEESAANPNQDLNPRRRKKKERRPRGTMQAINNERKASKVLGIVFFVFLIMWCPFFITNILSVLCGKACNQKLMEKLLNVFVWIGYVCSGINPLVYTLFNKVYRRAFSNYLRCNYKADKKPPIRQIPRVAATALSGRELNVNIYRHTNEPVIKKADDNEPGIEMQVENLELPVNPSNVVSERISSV

[2] = biological target: 5-hydroxytryptamine receptor 6 (Rattus norvegicus, UniProt P31388)
Chain of 5-hydroxytryptamine receptor 6 (P31388 whole entry): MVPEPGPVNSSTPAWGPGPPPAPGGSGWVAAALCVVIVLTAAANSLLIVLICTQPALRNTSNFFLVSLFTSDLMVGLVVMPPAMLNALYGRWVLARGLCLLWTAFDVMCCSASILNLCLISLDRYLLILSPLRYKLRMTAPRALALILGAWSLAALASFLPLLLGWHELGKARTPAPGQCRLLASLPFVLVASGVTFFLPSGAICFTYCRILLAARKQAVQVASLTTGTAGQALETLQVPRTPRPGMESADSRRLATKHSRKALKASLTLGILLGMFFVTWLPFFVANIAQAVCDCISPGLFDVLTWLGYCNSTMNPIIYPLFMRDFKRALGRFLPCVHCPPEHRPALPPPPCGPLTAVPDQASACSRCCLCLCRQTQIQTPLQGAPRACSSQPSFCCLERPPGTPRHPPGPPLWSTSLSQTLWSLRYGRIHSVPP

[3] = biological target: 5-hydroxytryptamine receptor 2B (Rattus norvegicus, UniProt P30994)
Chain of 5-hydroxytryptamine receptor 2B (P30994 whole entry): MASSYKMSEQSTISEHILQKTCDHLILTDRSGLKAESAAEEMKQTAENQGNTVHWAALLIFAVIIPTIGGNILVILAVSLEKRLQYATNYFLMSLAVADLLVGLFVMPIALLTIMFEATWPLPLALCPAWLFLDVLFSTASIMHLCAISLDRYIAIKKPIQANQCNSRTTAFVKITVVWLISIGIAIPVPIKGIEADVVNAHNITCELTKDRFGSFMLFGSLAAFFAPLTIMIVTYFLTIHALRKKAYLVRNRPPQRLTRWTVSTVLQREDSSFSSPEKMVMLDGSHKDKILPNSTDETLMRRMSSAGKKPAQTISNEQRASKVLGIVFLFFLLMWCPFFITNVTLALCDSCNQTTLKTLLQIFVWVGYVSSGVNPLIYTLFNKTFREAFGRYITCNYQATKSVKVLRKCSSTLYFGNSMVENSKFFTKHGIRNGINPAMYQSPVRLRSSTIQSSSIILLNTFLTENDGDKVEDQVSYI

[4] = biological target: 5-hydroxytryptamine receptor 7 (Rattus norvegicus, UniProt P32305)
Chain of 5-hydroxytryptamine receptor 7 (P32305 whole entry): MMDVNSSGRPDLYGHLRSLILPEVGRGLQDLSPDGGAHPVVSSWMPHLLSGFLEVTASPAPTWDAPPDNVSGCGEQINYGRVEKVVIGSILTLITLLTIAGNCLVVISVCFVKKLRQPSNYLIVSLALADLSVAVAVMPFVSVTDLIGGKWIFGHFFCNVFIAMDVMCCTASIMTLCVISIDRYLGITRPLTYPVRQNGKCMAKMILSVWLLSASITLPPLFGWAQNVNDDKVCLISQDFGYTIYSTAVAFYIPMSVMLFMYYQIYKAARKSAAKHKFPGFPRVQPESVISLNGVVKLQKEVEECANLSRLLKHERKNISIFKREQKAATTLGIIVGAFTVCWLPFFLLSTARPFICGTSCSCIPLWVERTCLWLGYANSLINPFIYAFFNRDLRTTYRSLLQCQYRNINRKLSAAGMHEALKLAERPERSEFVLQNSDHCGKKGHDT

SMILES | Ki [1] | Ki [2] | Ki [3] | Ki [4]
O=C(CCCN1CCC2(CC1)C(=O)NCN2c1ccccc1)c1ccc(F)cc1 [8-[4-(4-fluorophenyl)-4-oxidanylidene-butyl]-1-phenyl-1,3,8-triazaspiro[4.5]decan-4-one] | 1260 nM | – | – | –
CN1C[C@H](CNC(=O)OCc2ccccc2)C[C@@H]2c3cccc4c3c(cn4C)C[C@H]21 [METERGOLINE] | 0.63 nM | 31.6 nM | – | –
O=C(c1ccc(F)cc1)C1CCN(CCn2c(=O)[nH]c3ccccc3c2=O)CC1 [3-(2-{4-[(4-fluorophenyl)carbonyl]piperidin-1-yl}ethyl)-1,2,3,4-tetrahydroquinazoline-2,4-dione] | 100 nM | > 10000 nM | 3160 nM | –
CN1C[C@@H](NS(=O)(=O)N(C)C)C[C@@H]2c3cccc4c3c(cn4C)C[C@H]21 [MESULERGINE] | 1.58 nM | 1580 nM | – | 6.31 nM
CN(C)CC/C=C1\c2ccccc2Sc2ccc(Cl)cc21 | – | 3.16 nM | – | 5.01 nM
CN1CCN(C2=Nc3ccccc3Oc3ccc(Cl)cc32)CC1 [13-chloro-10-(4-methylpiperazin-1-yl)-2-oxa-9-azatricyclo[9.4.0.0^{3,8}]pentadeca-1(11),3,5,7,9,12,14-heptaene] | – | 15.9 nM | – | 39.8 nM
OCCN1CCN(CCCN2c3ccccc3Sc3ccc(Cl)cc32)CC1 [4-[3-(2-chlorophenothiazin-10-yl)propyl]-1-piperazineethanol] | – | 15.9 nM | – | 25.1 nM
Cc1nc2sccn2c(=O)c1CCN1CCC(=C(c2ccc(F)cc2)c2ccc(F)cc2)CC1 | 2.51 nM | 39.8 nM | – | –
Clc1ccc2c(c1)C(N1CCNCC1)=Nc1ccccc1O2 | – | 6.31 nM | – | –
CN(C)CCC=C1c2ccccc2CCc2ccccc21 | – | 63.1 nM | – | 126 nM
COC(=O)[C@@H]1[C@H]2C[C@H]3c4[nH]c5ccccc5c4CCN3C[C@@H]2CC[C@@H]1O [yohimbic acid methyl ester] | 1580 nM and > 10000 nM | – | 39.8 nM | –
CC[C@@H](CO)NC(=O)[C@@H]1C=C2c3cccc4c3c(cn4C)C[C@H]2N(C)C1 | 2.51 nM | 398 nM | – | –
CSc1ccc2c(c1)C(N1CCN(C)CC1)Cc1ccccc1S2 (stereo not drawn) [methanesulfonic acid;1-methyl-4-(3-methylsulfanyl-5,6-dihydrobenzo[b][1]benzothiepin-5-yl)piperazine] | 25.1 nM | – | – | –
CC(O)C(C)OC(=O)C1CC2c3cccc4c3c(cn4C(C)C)CC2N(C)C1 (stereo not drawn) [CAS_60634-51-7] | 7.94 nM | – | 6.31 nM | –
CN1CCC(=C2c3ccccc3CCc3sccc32)CC1 [NSC_27400] | 7.94 nM | – | – | –
